{"source": "the NIST ThermoML archive (doi:10.1021/je0301794)", "key": {"[1]": {"settings": "Liquid; for mass density: 101.3 kPa; for Normal boiling temperature: Closed cell (Static) method"}, "[2]": {"test": "excess molar enthalpy (molar enthalpy of mixing); xn = mol fraction of the nth substance listed", "settings": "318.15 K, 101.3 kPa, Liquid"}, "[3]": {"test": "xn = mol fraction of the nth substance listed", "settings": "101.3 kPa, Liquid"}}, "note": "Where “and” joins values, the source holds several entries; their conditions need not be identical. Equal values may be shown once. Numbers after ± are expanded uncertainties."}
{"molecule": "CCCCCCCCCC", "note": "[decane]", "values": [{"measurement": "mass density", "setting": "[1]; 298.15 K", "value": "726.2 ± 0.5", "unit": "kg/m3"}, {"measurement": "mass density", "setting": "[1]; 303.15 K", "value": "722.3 ± 0.5", "unit": "kg/m3"}, {"measurement": "mass density", "setting": "[1]; 313.15 K", "value": "714.7 ± 0.5", "unit": "kg/m3"}, {"measurement": "mass density", "setting": "[1]; 318.15 K", "value": "710.9 ± 0.5", "unit": "kg/m3"}, {"measurement": "Normal boiling temperature", "setting": "[1]", "value": "173.8 ± 0.2", "unit": "°C"}]}
{"molecule": "COC(=O)OC", "note": "[dimethyl carbonate]", "values": [{"measurement": "mass density", "setting": "[1]; 293.15 K", "value": "1070 ± 0.6", "unit": "kg/m3"}, {"measurement": "mass density", "setting": "[1]; 298.15 K", "value": "1063.5 ± 0.6", "unit": "kg/m3"}, {"measurement": "mass density", "setting": "[1]; 303.15 K", "value": "1056.5 ± 0.6 kg/m3 and 1056.6 ± 0.6 kg/m3"}, {"measurement": "mass density", "setting": "[1]; 313.15 K", "value": "1043.4 ± 0.5", "unit": "kg/m3"}, {"measurement": "mass density", "setting": "[1]; 318.15 K", "value": "1036.9 ± 0.5", "unit": "kg/m3"}, {"measurement": "Normal boiling temperature", "setting": "[1]", "value": "90.31 ± 0.2", "unit": "°C"}]}
{"molecule": "COC(=O)OC", "note": "[dimethyl carbonate] + CCCCCCCCC", "values": [{"measurement": "excess molar enthalpy", "setting": "[2]; x1 = 1", "value": "0 ± 0.000478", "unit": "kcal/mol"}, {"measurement": "mass density", "setting": "[3]; 293.15 K, x1 = 1", "value": "1070 ± 0.6", "unit": "kg/m3"}, {"measurement": "mass density", "setting": "[3]; 298.15 K, x1 = 1", "value": "1063.5 ± 0.6", "unit": "kg/m3"}, {"measurement": "mass density", "setting": "[3]; 303.15 K, x1 = 1", "value": "1056.6 ± 0.6", "unit": "kg/m3"}, {"measurement": "mass density", "setting": "[3]; 313.15 K, x1 = 1", "value": "1043.4 ± 0.5", "unit": "kg/m3"}, {"measurement": "mass density", "setting": "[3]; 318.15 K, x1 = 1", "value": "1036.9 ± 0.5", "unit": "kg/m3"}]}
{"molecule": "COC(=O)OC", "note": "[dimethyl carbonate] + CCCCCCCCCC", "values": [{"measurement": "excess molar enthalpy", "setting": "[2]; x1 = 1", "value": "0 ± 0.000478", "unit": "kcal/mol"}, {"measurement": "mass density", "setting": "[3]; 298.15 K, x1 = 1", "value": "1063.5 ± 0.6", "unit": "kg/m3"}, {"measurement": "mass density", "setting": "[3]; 303.15 K, x1 = 1", "value": "1056.6 ± 0.6", "unit": "kg/m3"}, {"measurement": "mass density", "setting": "[3]; 313.15 K, x1 = 1", "value": "1043.4 ± 0.5", "unit": "kg/m3"}, {"measurement": "mass density", "setting": "[3]; 318.15 K, x1 = 1", "value": "1036.9 ± 0.5", "unit": "kg/m3"}]}
{"molecule": "CCCCCCC", "note": "[heptane]", "values": [{"measurement": "mass density", "setting": "[1]; 293.15 K", "value": "683.6 ± 0.5", "unit": "kg/m3"}, {"measurement": "mass density", "setting": "[1]; 298.15 K", "value": "679.4 ± 0.5", "unit": "kg/m3"}, {"measurement": "mass density", "setting": "[1]; 303.15 K", "value": "675.3 ± 0.5", "unit": "kg/m3"}, {"measurement": "mass density", "setting": "[1]; 313.15 K", "value": "666.6 ± 0.5", "unit": "kg/m3"}, {"measurement": "mass density", "setting": "[1]; 318.15 K", "value": "661.5 ± 0.5", "unit": "kg/m3"}, {"measurement": "Normal boiling temperature", "setting": "[1]", "value": "98.03 ± 0.2", "unit": "°C"}]}
{"molecule": "CCCCCCC", "note": "[heptane] + COC(=O)OC", "values": [{"measurement": "excess molar enthalpy", "setting": "[2]; x2 = 0", "value": "0 ± 0.000478", "unit": "kcal/mol"}, {"measurement": "mass density", "setting": "[3]; 293.15 K, x2 = 0", "value": "683.6 ± 0.5", "unit": "kg/m3"}, {"measurement": "mass density", "setting": "[3]; 298.15 K, x2 = 0", "value": "679.4 ± 0.5", "unit": "kg/m3"}, {"measurement": "mass density", "setting": "[3]; 303.15 K, x2 = 0", "value": "675.3 ± 0.5", "unit": "kg/m3"}, {"measurement": "mass density", "setting": "[3]; 313.15 K, x2 = 0", "value": "666.6 ± 0.5", "unit": "kg/m3"}, {"measurement": "mass density", "setting": "[3]; 318.15 K, x2 = 0", "value": "661.5 ± 0.5", "unit": "kg/m3"}]}
{"molecule": "CCCCCC", "note": "[hexane]", "values": [{"measurement": "mass density", "setting": "[1]; 293.15 K", "value": "659.3 ± 0.5", "unit": "kg/m3"}, {"measurement": "mass density", "setting": "[1]; 298.15 K", "value": "654.8 ± 0.5", "unit": "kg/m3"}, {"measurement": "mass density", "setting": "[1]; 303.15 K", "value": "650.4 ± 0.5", "unit": "kg/m3"}, {"measurement": "mass density", "setting": "[1]; 313.15 K", "value": "641.1 ± 0.6", "unit": "kg/m3"}, {"measurement": "mass density", "setting": "[1]; 318.15 K", "value": "636.4 ± 0.6", "unit": "kg/m3"}, {"measurement": "Normal boiling temperature", "setting": "[1]", "value": "68.78 ± 0.2", "unit": "°C"}]}
{"molecule": "CCCCCC", "note": "[hexane] + COC(=O)OC", "values": [{"measurement": "excess molar enthalpy", "setting": "[2]; x2 = 0", "value": "0 ± 0.000478", "unit": "kcal/mol"}, {"measurement": "mass density", "setting": "[3]; 293.15 K, x2 = 0", "value": "659.3 ± 0.5", "unit": "kg/m3"}, {"measurement": "mass density", "setting": "[3]; 298.15 K, x2 = 0", "value": "654.8 ± 0.5", "unit": "kg/m3"}, {"measurement": "mass density", "setting": "[3]; 303.15 K, x2 = 0", "value": "650.4 ± 0.5", "unit": "kg/m3"}, {"measurement": "mass density", "setting": "[3]; 313.15 K, x2 = 0", "value": "641.1 ± 0.6", "unit": "kg/m3"}, {"measurement": "mass density", "setting": "[3]; 318.15 K, x2 = 0", "value": "636.4 ± 0.6", "unit": "kg/m3"}]}
{"molecule": "CCCCCCCCC", "note": "[nonane]", "values": [{"measurement": "mass density", "setting": "[1]; 293.15 K", "value": "717.7 ± 0.5", "unit": "kg/m3"}, {"measurement": "mass density", "setting": "[1]; 298.15 K", "value": "713.9 ± 0.5", "unit": "kg/m3"}, {"measurement": "mass density", "setting": "[1]; 303.15 K", "value": "710.1 ± 0.5", "unit": "kg/m3"}, {"measurement": "mass density", "setting": "[1]; 313.15 K", "value": "702.2 ± 0.5", "unit": "kg/m3"}, {"measurement": "mass density", "setting": "[1]; 318.15 K", "value": "698.1 ± 0.5", "unit": "kg/m3"}, {"measurement": "Normal boiling temperature", "setting": "[1]", "value": "150.51 ± 0.2", "unit": "°C"}]}
{"molecule": "CCCCCCCC", "note": "[octane]", "values": [{"measurement": "mass density", "setting": "[1]; 293.15 K", "value": "702.5 ± 0.5", "unit": "kg/m3"}, {"measurement": "mass density", "setting": "[1]; 298.15 K", "value": "698.5 ± 0.5", "unit": "kg/m3"}, {"measurement": "mass density", "setting": "[1]; 303.15 K", "value": "694.5 ± 0.5", "unit": "kg/m3"}, {"measurement": "mass density", "setting": "[1]; 313.15 K", "value": "686.3 ± 0.5", "unit": "kg/m3"}, {"measurement": "mass density", "setting": "[1]; 318.15 K", "value": "682.1 ± 0.5", "unit": "kg/m3"}, {"measurement": "Normal boiling temperature", "setting": "[1]", "value": "125.50 ± 0.2", "unit": "°C"}]}
{"molecule": "CCCCCCCC", "note": "[octane] + COC(=O)OC", "values": [{"measurement": "excess molar enthalpy", "setting": "[2]; x2 = 0", "value": "0 ± 0.000478", "unit": "kcal/mol"}, {"measurement": "mass density", "setting": "[3]; 293.15 K, x2 = 0", "value": "702.5 ± 0.5", "unit": "kg/m3"}, {"measurement": "mass density", "setting": "[3]; 298.15 K, x2 = 0", "value": "698.5 ± 0.5", "unit": "kg/m3"}, {"measurement": "mass density", "setting": "[3]; 303.15 K, x2 = 0", "value": "694.5 ± 0.5", "unit": "kg/m3"}, {"measurement": "mass density", "setting": "[3]; 313.15 K, x2 = 0", "value": "686.3 ± 0.5", "unit": "kg/m3"}, {"measurement": "mass density", "setting": "[3]; 318.15 K, x2 = 0", "value": "682.1 ± 0.5", "unit": "kg/m3"}]}
